# Reference: ChEMBL document CHEMBL5338751, “Discovery of the First-in-Class Intestinal Restricted FXR and FABP1 Dual Modulator ZLY28 for the Treatment of Nonalcoholic Fatty Liver Disease” (J Med Chem, 2023)
# The source made the active and inactive calls. The rule behind the calls is not given here.
# Experiments:
# Bile acid receptor = molecular target: T1, Bile acid receptor (Homo sapiens, UniProt Q96RI1); test: Agonist activity at FXR-LBD (unknown origin) using fluorescein-coactivator peptide incubated for 3 hrs by TR-FRET assay
# T1 sequence (Q96RI1 whole entry): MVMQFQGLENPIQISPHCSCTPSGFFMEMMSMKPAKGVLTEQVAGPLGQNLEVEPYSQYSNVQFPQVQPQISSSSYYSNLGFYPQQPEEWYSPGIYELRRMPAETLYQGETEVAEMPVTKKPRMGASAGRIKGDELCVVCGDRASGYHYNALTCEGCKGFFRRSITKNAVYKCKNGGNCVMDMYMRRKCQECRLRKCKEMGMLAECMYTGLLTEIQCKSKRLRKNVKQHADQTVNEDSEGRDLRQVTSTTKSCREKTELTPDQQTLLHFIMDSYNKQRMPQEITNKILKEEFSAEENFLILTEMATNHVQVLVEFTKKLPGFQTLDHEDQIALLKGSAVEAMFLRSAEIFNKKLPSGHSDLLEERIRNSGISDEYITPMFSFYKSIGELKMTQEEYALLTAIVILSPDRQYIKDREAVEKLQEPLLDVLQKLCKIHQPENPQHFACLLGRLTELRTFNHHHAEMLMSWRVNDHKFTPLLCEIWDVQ
# Vitamin D3 receptor = Vitamin D3 receptor (Homo sapiens, UniProt P11473); test: Activation of VP16-fused VDR-LBD (unknown origin) incubated for 18 hrs in presence of substrate by luciferase assay
# [1] = Drug concentration in C57BL/6 mouse ileum at 20 mg/kg, po administered for 5 days and measured after 1 hr post final dose by LC-MS analysis; format: ADME, organism-based; settings: time 5 day, read-out: Ct
# [2] = molecular target: T2, Bile acid receptor (Mus musculus) (UniProt Q60641); test: Activation of FXR in C57BL/6 mouse ileum assessed as upregulation of OST-beta gene expression at 20 mg/kg, po administered for 5 days and measured after 1 hr post final dose by RT-PCR analysis; format: organism-based; settings: filed as activator, time 5.0 day
# T2 sequence (whole entry): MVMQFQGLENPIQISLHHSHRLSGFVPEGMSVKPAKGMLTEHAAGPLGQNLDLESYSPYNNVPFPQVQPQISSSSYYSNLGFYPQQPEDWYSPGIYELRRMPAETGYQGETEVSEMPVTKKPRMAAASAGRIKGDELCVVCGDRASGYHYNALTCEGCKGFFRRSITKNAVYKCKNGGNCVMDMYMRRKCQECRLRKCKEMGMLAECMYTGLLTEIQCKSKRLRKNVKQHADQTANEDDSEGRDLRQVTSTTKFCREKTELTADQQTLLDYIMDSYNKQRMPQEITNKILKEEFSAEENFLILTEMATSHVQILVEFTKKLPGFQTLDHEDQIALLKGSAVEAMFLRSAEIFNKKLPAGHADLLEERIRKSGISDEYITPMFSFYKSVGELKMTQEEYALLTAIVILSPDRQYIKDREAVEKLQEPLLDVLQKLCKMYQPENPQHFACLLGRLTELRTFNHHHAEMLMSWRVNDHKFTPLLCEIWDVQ
# Mus musculus = test: Anti-NASH activity in western diet and CCl4-induced nonalcoholic steatohepatitis C57BL/6 mouse assessed as downregulation of F4/80 expression level at 20 mg/kg, po administered for 12 weeks starting from week 8 and change in dose for every 5 days; format: functional, organism-based; settings: time 4.0 weeks
# [3] = molecular target: T2, Bile acid receptor (Mus musculus); test: In vivo activation of FXR pathway in western diet and CCl4-induced nonalcoholic steatohepatitis C57BL/6 mouse model assessed as upregulation of OST-beta gene expression in ileum at 20 mg/kg, po administered for 12 weeks starting from week 8 and change in dose for every 5 days by RT-PCR analysis; format: functional, organism-based; settings: time 4.0 weeks
# [4] = Subacute toxicity in ICR mouse assessed as changes in serum UA level at 500 mg/kg/day, po administered for 14 days; format: organism-based; settings: in vivo, 336 h, time 14 day
# [5] = Subacute toxicity in ICR mouse assessed as reduction in serum ALP level at 500 mg/kg/day, po administered for 14 days; format: organism-based; settings: in vivo, 336 h, time 14 day
# Sequence of Vitamin D3 receptor (P11473 whole entry, the tested form may be a part): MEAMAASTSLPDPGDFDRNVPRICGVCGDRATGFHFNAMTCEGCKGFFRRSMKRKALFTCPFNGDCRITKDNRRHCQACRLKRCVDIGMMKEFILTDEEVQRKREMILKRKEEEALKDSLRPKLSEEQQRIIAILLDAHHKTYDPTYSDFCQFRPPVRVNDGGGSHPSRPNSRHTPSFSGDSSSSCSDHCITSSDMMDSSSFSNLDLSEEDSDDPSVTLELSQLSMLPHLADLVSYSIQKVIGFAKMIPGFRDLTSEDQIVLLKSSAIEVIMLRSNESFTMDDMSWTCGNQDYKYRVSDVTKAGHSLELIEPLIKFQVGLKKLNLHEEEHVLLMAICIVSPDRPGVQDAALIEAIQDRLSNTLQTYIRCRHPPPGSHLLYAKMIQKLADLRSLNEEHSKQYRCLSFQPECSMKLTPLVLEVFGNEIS
compound,measurement,setting,value
O=C(O)C1(c2cccc(-c3ccc(OCc4c(-c5c(Cl)cccc5Cl)noc4C4CC4)cc3)c2)CC1,EC50,Bile acid receptor,143 nM
same,EC50,Vitamin D3 receptor,> 10000 nM
same,concentration at 120 h,[1],996 ng/g
same,Activity,[2],Active
same,Activity,Mus musculus,Active
same,Activity,[3],Active
same,Activity,[4],Non-Toxic
same,Activity,[5],Non-Toxic
